SMILES strings stand for the structures.

For assay [1], the target named is T1, guinea pig right atria (Cavia porcellus, UniProt H0W3H1).
T1 construct: from tissue; host or cells: guinea pig right atria (isolated, spontaneously beating)
Put plainly: Beta blocking activity in vitro, guinea pig right atria (isoproterenol-induced rate change). To be noted: guinea pig right atria, vs isoproterenol, 60-minute incubation; read-out: pA2 value in the atria (converted). As to the method: (§1) Compounds of the present invention are tested for β-blocking activity in vitro using guinea pig right atria and guinea pig tracheal strips mounted in a tissue bath containing oxygenated (95% O2 -5% CO2) Krebs physiological salt solution at 37° C. Each tissue is suspended between a fixed glass rod and a Statham Universal Transducer connected to a Beckman recorder. Atria were allowed to beat spontaneously under a loading tension of approximately 0.5 gm. Intrinsic depressant or stimulant activity is determined for each compound by progressively increasing concentrations in the tissue baths at 60-minute intervals. Tissues are not washed between increments. The maximum concentration showing little or no cardiodepressant activity is chosen for blockade experiments. Changes in rate in response to isoproterenol, a standard β-receptor agonist, is measured in the absence and presence of test compounds. Spiral strips of guinea pig trachea are suspended under 5 gm resting tension and incubated with phentolamine, tropolone and cocaine. Active tension is generated by addition of carbachol (3.0×10^-7 M) and decreases in tension in response to isoproterenol are quantitated. Cumulative concentration-response curves are produced with isoproterenol both before and after 60-minute incubation of test compounds with atria and trachea. […]

For assay [2], the system named is guinea pig right atria. The description is as above. The conditions noted are these: ratio greater than one indicates cardioselectivity. As to the method: as §1
The target of assay [3] is T2, guinea pig tracheal strips (Cavia porcellus, UniProt Q8K4Z4).
T2 construct: from tissue; host or cells: guinea pig tracheal spiral strips
Description: Beta blocking activity in vitro, guinea pig tracheal strips (isoproterenol-induced relaxation). The conditions noted are these: carbachol tension, vs isoproterenol, 60-minute incubation, read-out: pA2 value in the trachea (converted). The protocol: as §1

Assay [4] relates to β-blockade of isoproterenol heart rate response. Description: Duration of beta-blocking action in vivo, anesthetized dogs. Details: species or system dog. The conditions noted are these: pentobarbital-anesthetized dogs, after 3-hour infusion, isoproterenol 0.5 μg/kg bolus. The protocol: The duration of β-blockade is determined In vivo using pentobarbital-anesthetized dogs instrumented for measurement of heart rate using a Beckman cardiotachometer triggered electronically by a phasic aortic blood pressure signal. Both vagus nerves are severed in the cervical region and the animals are mechanically ventilated. The experimental design used employs a 3-hour infusion of test compound. Bolus doses of isoproterenol (0.5 μg/kg) are used to assess the degree of β-blockade and recovery from β-blockade after […] of the infusion. The doses are spaced at 10-minute intervals and are given before, during and following the infusion of test compounds. The infusion rate is adjusted so that at the end of the 3-hour infusion period the degree of isoproterenol inhibition averaged about 50% of control. Following termination of blocker infusion, percent recovery from β-blockade is computed and the time associated with 80% recovery estimated.

T1 sequence (H0W3H1 1-470): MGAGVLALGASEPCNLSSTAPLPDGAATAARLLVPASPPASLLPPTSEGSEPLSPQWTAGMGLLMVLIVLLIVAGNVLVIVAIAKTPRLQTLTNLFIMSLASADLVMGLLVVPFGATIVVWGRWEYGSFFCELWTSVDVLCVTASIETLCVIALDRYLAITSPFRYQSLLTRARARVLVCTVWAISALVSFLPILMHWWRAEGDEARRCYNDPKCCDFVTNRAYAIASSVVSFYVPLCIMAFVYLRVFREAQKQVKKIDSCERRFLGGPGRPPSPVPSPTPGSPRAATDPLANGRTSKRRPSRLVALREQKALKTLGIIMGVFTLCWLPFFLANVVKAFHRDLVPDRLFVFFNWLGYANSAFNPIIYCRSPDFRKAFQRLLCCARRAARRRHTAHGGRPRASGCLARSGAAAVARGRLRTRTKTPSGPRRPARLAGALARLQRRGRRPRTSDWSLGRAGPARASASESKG
T2 sequence (Q8K4Z4 whole entry): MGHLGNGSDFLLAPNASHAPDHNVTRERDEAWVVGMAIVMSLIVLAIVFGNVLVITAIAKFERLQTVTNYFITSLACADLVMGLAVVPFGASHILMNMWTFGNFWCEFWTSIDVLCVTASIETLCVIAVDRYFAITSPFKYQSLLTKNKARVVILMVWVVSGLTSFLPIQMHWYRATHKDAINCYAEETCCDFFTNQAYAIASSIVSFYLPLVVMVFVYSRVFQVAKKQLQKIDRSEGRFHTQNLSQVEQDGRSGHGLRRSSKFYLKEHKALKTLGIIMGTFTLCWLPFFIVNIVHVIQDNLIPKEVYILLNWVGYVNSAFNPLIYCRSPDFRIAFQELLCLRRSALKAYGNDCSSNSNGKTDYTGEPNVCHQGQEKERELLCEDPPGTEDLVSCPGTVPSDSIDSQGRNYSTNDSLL

As for `COC(=O)c1ccccc1OCC(O)CNCCNc1ccc([N+](=O)[O-])cn1` (stereo not shown) [Example I, Methyl 2[2-Hydroxy-3-[2-[2-(5-nitropyridinyl)amino]ethyl]aminopropoxy benzoate], the Kb in assay [1] is 31.6 nM; in assay [3], 79.4 nM. Besides, the “cardioselectivity (ratio KB trachea/KB atria)” value in assay [2] is 2.5. In assay [4], the “in vivo duration of action (time to 80% recovery from β-blockade)” value is 15 ± 6 min.

The values are drawn from US4556668A, “Ethylenediamine derivatives of aryloxypropanolamine aryl esters having various medicinal properties” (American Hospital Supply Corporation, priority 1983, dated 1985).
